Results on ten substances are retold here after article PMC5224518, “Hydrophobic mismatch demonstrated for membranolytic peptides, and their use as molecular rulers to measure bilayer thickness in native cells” (Scientific Reports, 2015).

Where two headings read alike, the source gives them in different places. Ends that are not written are not given here.

In data set [1] the test system is Enterococcus faecalis (DSM 2570). Format: cell-based. Here is the method: (§1) Antimicrobial activity was measured by a standard MIC assay, carried out with Gram-positive Staphylococcus aureus (DSM 1104) and Enterococcus faecalis (DSM 2570) and with Gram-negative Escherichia coli (DSM 1103) and Pseudomonas aeruginosa (DSM 1117), as previously reported. Briefly, bacteria were grown in Müller-Hinton medium at 37°C overnight. Microtiter plates (96 wells of 100 μL) were filled with 50 μL of Müller-Hinton medium, and serial 2-fold dilutions of peptides were arranged in quadruple. The two final rows of each plate remained without peptide, so that the penultimate data point served as the positive control (no peptide), and the final one as the negative control (not inoculated). 50 μL of bacterial suspension (OD = 0.2) was added to the wells (except for the final row of each plate) to give a final concentration of 10^6 colony-forming units (CFU)/mL.

Data set [2] has as its system Escherichia coli (DSM 1103). Format: cell-based. Here is the method: as §1
Data set [3] concerns Pseudomonas aeruginosa (DSM 1117). The format is cell-based. Here is the method:
as §1

The test system of data set [4] is Staphylococcus aureus (DSM 1104). The format is cell-based. Here is the method:
as §1

A short description of data set [5]: Vesicle leakage assay (ANTS/DPX fluorescence dequenching). The format is biochemical. Conditions: for percentage of leakage: P/L = 1:12.5, after 10 minutes, 100 μM lipid, 30°C, pH 7.5, relative to Triton X-100 = 100%. The method, then: For the leakage experiments, the buffer in which the vesicles were prepared contained the fluorophor ANTS (12.5 mM), the quencher DPX (45 mM), 50 mM NaCl, and 10 mM HEPES (pH 7.5). Liposomes were prepared by co-dissolving PC/PG 1:1 (mol/mol) mixtures of the lipids with different chain length in CHCl3/MeOH (3:1 v/v), together with 10^−2 mol% Rhod-PE by which the lipid loss during vesicle preparation (extrusion and gel filtration, see below) could be quantified. The peptide-to-lipid ratio (P/L) is given in mol/mol. The lipid mixture was dried under N2(g) and left to dry under vacuum overnight. The obtained thin film was then re-suspended in the buffer which contained the fluorophor and the quencher by vigorous vortexing, followed by 10 freeze-thaw cycles. Large unilamellar vesicles (LUV) were obtained by 21-fold extrusion (Avanti Mini Extruder; Avanti Polar Lipids, Alabaster, AL) of the liposomes through a Nuclepore polycarbonate membrane (pore size 100 nm, Whatman - GE Healthcare Europe, Freiburg, Germany) at a temperature 20°C above the lipid phase transition. Unencapsulated dye was removed by gel filtration using spin columns filled with Sephacryl 100-HR (Sigma-Aldrich, Taufkirchen, Germany), and equilibrated with an elution buffer (150 mM NaCl, 10 mM HEPES, pH 7.5) which balances the internal vesicle osmolarity.
Leakage of entrapped ANTS was monitored by fluorescence dequenching of ANTS[76]. Fluorescence measurements were performed in a thermostatted cuvette with constant stirring at 30°C in the same buffer as used for gel filtration on a FluoroMax2 spectrofluorimeter (HORIBA Jobin Yvon, Unterhaching, Germany) by setting the ANTS emission to 510 nm (5 nm slit) and its excitation to 355 nm (5 nm slit). The vesicles (100 μM lipid final concentration) of the desired composition were added to the cuvette containing the peptide at the P/L ratio to be tested (from 1 mM stock solutions in water). The level of 0% leakage corresponded to the fluorescence of the vesicles immediately after their addition, while 100% leakage was the fluorescence value obtained after addition of a 0.25 vol-% Triton X-100 after 10 min.

A short description of data set [6]: Circular dichroism, secondary structure deconvolution (CONTIN-LL). Format: physicochemical. Conditions: CD, P/L 1:50, 30 μM peptide, 30°C; for Helicity: DMPC/DMPG (3:1) small unilamellar vesicles, 10 mM phosphate buffer pH 7, minimum helical content; for Percentage of secondary structure element: α-helix: DMPC/DMPG (3:1) vesicles. Here is the method:
CD samples were prepared by co-solubilizing DMPC and DMPG (3:1 mol/mol) in chloroform/methanol 3:1 (v/v). After drying, the lipid film was dispersed in phosphate buffer (10 mM, pH 7) and homogenized by vortexing. Small unilamellar vesicles (SUVs) for CD samples were generated by sonication in a high-power ultrasonic bath with a beaker-shaped sonotrode (UTR 200, Hielscher, Germany). CD spectra were recorded on a J-815 spectropolarimeter (JASCO, Groß-Umstadt, Germany) between 260 and 185 nm at 0.1-nm intervals, using 1-mm quartz glass cells (Suprasil; Hellma, Müllheim, Germany) at 20°C, as reported previously. The peptides were measured at 20°C in 10 mM sodium phosphate buffer (pH 7.0) and at 30°C in lipid vesicles composed of DMPC/DMPG (3:1). Typical peptide concentrations of the final samples in phosphate buffer was 36–72 μM, and for the vesicle samples 30 μM with a peptide-to-lipid molar ratio (P/L) of 1:50. An averaged baseline of the pure solvent or lipid matrix, respectively, was subtracted. Finally, the spectra were converted to mean residue ellipticities (MRE) by using the weighed-in peptide amount and the volume of the sample for concentration determination. […] Although this ambiguity in peptide concentration leads most probably to an underestimation of the magnitude of the MRE values we attempted a quantitative deconvolution of CD data to estimate the relative contents of different secondary structure elements. If part of the weighted material was not peptide, this leads to an underestimating of the MRE, which also leads to an underestimation of the helical content. The values obtained are thus the minimum helical content of each peptide.
Secondary structure estimation from CD spectra was performed using the CONTIN-LL program, which is based on the ridge regression algorithm. The algorithm is provided by the DICHROWEB on-line server. The quality of the fit between experimental and back-calculated spectrum corresponding to the estimated secondary structure fractions was assessed from the normalized root mean square deviation (NRMSD), with a value <0.1 considered as a good fit[74].

[7] abbreviates: DErPC/DErPG 1:1 vesicles (34.4/34.4 Å).
Setting [8] is: DErPC/POPG 1:1 vesicles (34.4/27.8 Å).
Where [9] appears, read: DMoPC/DOPG 1:1 vesicles (hydrophobic thickness 19.2/27.5 Å).
Where [10] appears, read: POPC/DErPG 1:1 vesicles (27.1/34.4 Å).
[11] abbreviates: POPC/POPG 1:1 vesicles (27.1/27.8 Å).

Regarding “KIAGKIAKIAGKIAKIAGKIAKIAGKIA-NH2 [KIA28]”, the MIC in data set [1] (DSM 2570, 20 h) amounted to 5.2 µM; in data set [2] (DSM 1103, 20 h), 2.6 µM; in data set [3] (DSM 1117, 20 h), 5.2 µM; in data set [4] (DSM 1104, 20 h), 2.6 µM.
Consider KIAGKIAKIAGKIAKIAGKIA-NH2 [KIA21], for which the MIC in data set [1] (DSM 2570, 20 h) came to 443 µM; in data set [2] (DSM 1103, 20 h), 1.7 µM; in data set [3] (DSM 1117, 20 h), 28 µM; in data set [4] (DSM 1104, 20 h) it was 3.5 µM.
Turning to KIAGKIAKIAGKIAK-NH2 [KIA15], the MIC in data set [1] (DSM 2570, 20 h) is greater than 595 µM; in data set [2] (DSM 1103, 20 h), greater than 149 µM; in data set [3] (DSM 1117, 20 h), greater than 149 µM; in data set [4] (DSM 1104, 20 h), greater than 149 µM. For the same substance, in data set [2] (E. coli DSM 1103, MIC assay), the “antimicrobial activity (in words)” value was “completely inactive”. The percentage of leakage in data set [5] (setting [7]) was found to be 0%; in data set [5] (setting [8]), 3%; in data set [5] (setting [9]) it was 3%; in data set [5] (setting [10]), 2%; in data set [5] (setting [11]) it was 2%. In data set [5] (POPC/POPG vesicles, P/L = 1:50, time course over 600 s, Triton X-100 = 100%), this substance displayed a leakage of less than 2%. In data set [6], this substance yielded a Helicity of 69%. The “Percentage of secondary structure element: α-helix” value in data set [6] stood at 68.7%.
Turning to “GMASKAGAIAGKIAKVALKAL-NH2 [PGLa, reference compound]”, the minimal inhibitory concentration (MIC) in data set [1] (E. faecalis, same assay as Table 2, given in µM) is greater than 477 µM; in data set [2] (E. coli, same assay as Table 2, given in µM), 15 µM; in data set [3] (P. aeruginosa, same assay as Table 2, given in µM) it was 119 µM; in data set [4] (S. aureus, same assay as Table 2, given in µM), 30 µM.
As for KIAGKIAKIAGKIA-NH2 [KIA14], the minimum inhibitory concentration (MIC) in data set [1] (DSM 2570, 20 h) was greater than 657 µM; in data set [2] (DSM 1103, 20 h) it was greater than 164 µM; in data set [3] (DSM 1117, 20 h), greater than 164 µM; in data set [4] (DSM 1104, 20 h), greater than 164 µM.
Turning to KIAGKIAKIAGKIAKIAGKIAKIAGK-NH2 [KIA26], the MIC in data set [1] (DSM 2570, 20 h) was 22 µM; in data set [2] (DSM 1103, 20 h) it was 1.4 µM; in data set [3] (DSM 1117, 20 h), 5.6 µM; in data set [4] (DSM 1104, 20 h), 2.8 µM.
For the substance KIAGKIAKIAGKIAKIAGK-NH2 [KIA19], the MIC in data set [1] (DSM 2570, 20 h) is listed as greater than 481 µM; in data set [2] (DSM 1103, 20 h), 15 µM; in data set [3] (DSM 1117, 20 h), 120 µM; in data set [4] (DSM 1104, 20 h), greater than 120 µM.
With KIAGKIAKIAGKIAKIAGKIAK-NH2 [KIA22], the MIC in data set [1] (DSM 2570, 20 h) is given as 414 µM; in data set [2] (DSM 1103, 20 h), 1.6 µM; in data set [3] (DSM 1117, 20 h), 13 µM; in data set [4] (DSM 1104, 20 h), 6.5 µM. In addition, the “antimicrobial activity (in words)” value in data set [1] (E. faecalis DSM 2570, MIC assay) was “hardly any activity”; in data set [3] (P. aeruginosa DSM 1117, MIC assay), “somewhat active”. The percentage of leakage in data set [5] (setting [7]) is 6%; in data set [5] (setting [8]), 85%; in data set [5] (setting [9]) it was 100%; in data set [5] (setting [10]) it was 26%; in data set [5] (setting [11]), 100%. Also, the “kinetics (rate) of leakage” value in data set [5] (POPC/POPG vesicles, P/L = 1:50, time course over 600 s) is listed as “slower kinetics”. In data set [6], this substance showed a Helicity of 68%. For the same substance, the “Percentage of secondary structure element: α-helix” value in data set [6] was 67.7%.
Turning to KIAGKIAKIAGKIAKIAGKIAKIA-NH2 [KIA24], the MIC in data set [1] (DSM 2570, 20 h) came out at 24 µM; in data set [2] (DSM 1103, 20 h) it was 1.5 µM; in data set [3] (DSM 1117, 20 h), 6.0 µM; in data set [4] (DSM 1104, 20 h), 1.5 µM.
Consider KIAGKIAKIAGKIAKIA-NH2 [KIA17], for which the minimal inhibitory concentration (MIC) in data set [1] (DSM 2570, 20 h) is listed as greater than 537 µM; in data set [2] (DSM 1103, 20 h) it was 17 µM; in data set [3] (DSM 1117, 20 h), 134 µM; in data set [4] (DSM 1104, 20 h), 134 µM.
